Here are results for nine molecules from patent publication US5962451A, “Benzodiazepin derivatives useful as CCK-receptor antagonists” (Ferring BV, priority 1992, dated 1999).

Experiment [1] relates to Pentagastrin-stimulated gastric acid secretion. The experiment is described as follows: Measurement of Inhibition of Pentagastrin-stimulated Gastric Acid Secretion in dog (Heidenhain pouch). The note with it: beagle dog, oral, pentagastrin 8 μg/kg/hr, mean for 3-5 animals. The class given is in vivo, male beagle dog. How it is done:
Measurement of Inhibition of Pentagastrin-stimulated Gastric Acid Secretion in doc
Assays were performed using male beagle dogs (7-12 kg) two months after surgical preparation of Heidenhain pouches following the conventional procedure. Each dog was used only once per week.
The animals were deprived of food with free access to water for 18 hr prior to the experiment. The gastric juice was collected from the gastric cannula by gravity drainage every 15 min, and acid output was determined by automatic titration with 0.05 N NaOH to pH 7.0 (Comtite-7, Hiranuma, Tokyo, Japan). Drugs were administered orally 3 hr after the start of the pentagastrin (8 μg/kg/hr) infusion. The effect of each drug was calculated as the percentage inhibition of stimulated acid output. […] Each result is a mean for 3-5 animals.

The next experiment has as its target T1, CCK-B receptor (Rattus norvegicus, UniProt P30553).
T1 construct: the whole brain was immediately excised from each of the rats and homogenized; from tissue; host or cells: SD rat whole brain, membrane preparation
The experiment is described as follows: Measurement of Binding Affinity for CCK-B Receptors ([125I]BH-CCK-8 displacement, rat brain membranes). The note with it: SD rat brain membranes, [125I]BH-CCK-8, 25° C., 120 min, pH 6.5. How it is done:
Measurement of Binding Affinity for CCK-B Receptors
About 100 SD rats were decapitated without anaesthesia, the whole brain was immediately excised from each of the rats and homogenized in 10-fold volume of 0.32 M aqueous solution of sucrose by the use of a Teflon-coatedhomogenizer, the homogenate thus obtained was centrifuged for ten minutes at 900 g by the use of a cooled centrifuge, and the supernatant was further centrifuged for 15 minutes at 11500 g. The precipitate thus obtained was dispersed in 50 mM Tris-HCl buffer (pH 7.4) containing 0.08% Triton X-100, this suspension was allowed to stand for 30 minutes and again centrifuged for 15 minutes at 11500 g, the precipitate thus obtained was washed twice with 5 mM Tris-HCl buffer and twice with 50 mM Tris-HCl buffer in that order with centrifugal separation, the washed precipitate was suspended in 50 mM Tris-HCl buffer, and the suspension thus obtained was stored at -80° C. until the membrane preparation was required.
The membrane preparations were warmed to room temperature, diluted with 10 mM HEPES buffer (containing 130 mM NaCl, 5 mM MgCl2, 1 mM EGTA and 0.25 mg/ml bacitracin; pH 6.5) and incubated at 25° C. for 120 minutes in the presence of [^125 I]BH-CCK-8 and the test compound, then separated by suction filtration. Non-specific binding was determined in the presence of 1 μM CCK-8. The amount of labelled ligand bound to the receptor was measured by the use of a γ-counter; IC50 values were determined, being that concentration of test compound required to inhibit specific binding by 50%.
A high affinity for the CCK-A receptor in a gastrin/CCK-B antagonist is thought to be undesirable as it may lead to side-effects such as cholestasis and gall stone formation during therapy. Therefore it is preferable for the therapeutic agent to be selective for the CCK-B receptor. This selectivity is expressed by the ratio IC50. (CCK-A)/IC50 (CCK-B); the higher the value of this ratio the better is the selectivity.
The table below summarises CCK-B and CCK-A binding data for examples of preferred compounds, as well as the A/B ratio. Many compounds display a marked increase in CCK-B receptor binding affinity when compared to the compound of Example 281 of U.S. Pat. No. 4,820,834 (also known as L-365,260). Several compounds also show much greater selectivity for the CCK-B receptor over the CCK-A receptor than that reported for the compound of Example 281 of U.S. Pat. No.

The next experiment concerns the target T2, CCK-A receptor (Rattus norvegicus, UniProt P30551).
T2 construct: The pancreas of an SD rat was homogenized; from tissue; host or cells: SD rat pancreas, membrane preparation
T2 sequence (P30551 1-444): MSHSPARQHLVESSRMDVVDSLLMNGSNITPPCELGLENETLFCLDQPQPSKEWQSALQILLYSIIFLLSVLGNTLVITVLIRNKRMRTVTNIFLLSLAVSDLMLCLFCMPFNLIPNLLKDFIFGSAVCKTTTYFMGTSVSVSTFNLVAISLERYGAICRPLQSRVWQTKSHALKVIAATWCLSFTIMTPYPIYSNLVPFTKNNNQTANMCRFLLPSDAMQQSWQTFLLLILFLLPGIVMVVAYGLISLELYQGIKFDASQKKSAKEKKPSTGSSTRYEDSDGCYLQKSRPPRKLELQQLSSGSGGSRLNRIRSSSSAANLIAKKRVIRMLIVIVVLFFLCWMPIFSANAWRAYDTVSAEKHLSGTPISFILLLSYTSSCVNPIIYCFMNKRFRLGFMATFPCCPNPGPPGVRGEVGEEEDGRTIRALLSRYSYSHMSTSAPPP
The experiment in a line: Measurement of Binding Affinity for CCK-A Receptors ([3H]L-364,718 displacement, rat pancreas membranes). The note with it: SD rat pancreas membranes, [3H]L-364,718, 37° C., 30 min. Here is the method: Measurement of Binding Affinity for CCK-A Receptors
The pancreas of an SD rat was homogenized in a 20-fold volume of 50 mM Tris-HCl buffer (pH 7.7) by the use of a Polytrone-type homogenizer, the homogenate was twice centrifuged for 10 minutes at 50000 g by the use of an ultra-centrifuge, the precipitate thus obtained was suspended in a 40-fold volume of 50 mM Tris-HCl buffer (containing 0.2% BSA, 5 mM MgCl2, 0.1 mg/ml bacitracin and 5 mM DTT; pH 7.7), and the suspension was stored at -80° C. until the membrane preparations were required.
The membrane preparations were then warmed to room temperature, diluted 1:10 with the buffer and incubated at 37° C. for 30 minutes in the presence of [^3 H]L-364,718 and the test compound then separated by suction filtration. Non-specific binding was determined in the presence of 1 μM L-364,718. The amount of labelled ligand bound to the receptor was measured by the use of a liquid scintillation counter; IC50 values were determined, being that concentration of test compound required to inhibit specific binding by 50%.
A high affinity for the CCK-A receptor in a gastrin/CCK-B antagonist is thought to be undesirable as it may lead to side-effects such as cholestasis and gall stone formation during therapy. Therefore it is preferable for the therapeutic agent to be selective for the CCK-B receptor. This selectivity is expressed by the ratio IC50. […]

T1 sequence (P30553 whole entry): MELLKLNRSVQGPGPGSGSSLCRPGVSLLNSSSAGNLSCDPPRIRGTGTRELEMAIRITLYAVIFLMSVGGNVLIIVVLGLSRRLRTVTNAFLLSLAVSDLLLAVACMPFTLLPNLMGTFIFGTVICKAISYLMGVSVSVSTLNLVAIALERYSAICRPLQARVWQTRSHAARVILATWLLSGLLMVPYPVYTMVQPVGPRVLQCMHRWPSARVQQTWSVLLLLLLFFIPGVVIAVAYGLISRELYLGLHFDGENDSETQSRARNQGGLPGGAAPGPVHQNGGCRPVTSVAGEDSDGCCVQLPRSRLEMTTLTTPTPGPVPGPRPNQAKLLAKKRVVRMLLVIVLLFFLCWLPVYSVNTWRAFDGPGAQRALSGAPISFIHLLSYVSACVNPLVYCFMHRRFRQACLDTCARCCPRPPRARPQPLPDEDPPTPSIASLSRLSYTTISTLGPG

Take `CN(C)c1cccc(NC(=O)N[C@@H]2N=C(c3ccccc3)c3ccccc3N(CC(=O)C(C)(C)C)C2=O)c1` [Example 64, N-((3R)-1-tert-Butylcarbonylmethyl-2,3-dihydro-2-oxo-5-phenyl-1H-1,4-benzodiazepin-3-yl)-N'-(3-dimethylaminophenyl) urea]: the “maximum inhibition of stimulated acid output” value (“maximum inhibition” for short) in experiment [1] (3 μmol/kg) is 100%.

Consider `Cc1cccc(NC(=O)N[C@@H]2N=C(c3ccccc3)c3ccccc3N(CC(=O)C(C)(C)C)C2=O)c1` [Example 26, N-((3R)-1-tert-Butylcarbonylmethyl-2,3-dihydro-2-oxo-5-phenyl-1H-1,4-benzodiazepin-3-yl)-N'-(3-methylphenyl) urea], for which the “maximum inhibition” value in experiment [1] (3 μmol/kg) turned out to be 53%.

Usually IC50 stands for the concentration at which inhibition is half-maximal. Higher therefore signals lower potency. For the molecule `Cc1cccc(NC(=O)NC2N=C(c3ccccn3)c3ccccc3N(CC(=O)C3CCCC3)C2=O)c1` (racemic) [Example 14, N-((3RS)-1-Cyclopentylcarbonylmethyl-2,3-dihydro-2-oxo-5-(2-pyridyl)-1H-1,4-benzodiazepin-3-yl)-N'-(3-methylphenyl)urea], the figures for the IC50 on CCK-B receptor and at CCK-A receptor were 0.12 nM and 2600 nM, respectively. At CCK-B receptor, `Cc1cccc(NC(=O)NC2N=C(c3ccccc3)c3ccccc3N(CC(=O)C3CCCC3)C2=O)c1` (racemic) [Example 4, N-((3RS)-1-Cyclopentylcarbonylmethyl-2,3-dihydro-2-oxo-5-phenyl-1H-1,4-benzodiazepin-3-yl)-N'-(3-methylphenyl) urea] returned an IC50 of 0.23 nM. Still for that read-out and setting: to `Cc1cccc(NC(=O)NC2N=C(c3ccccc3)c3ccccc3N(CC(=O)CC3CCCCC3)C2=O)c1` (racemic) [Example 32, N-((3RS)-1-Cyclohexylmethylcarbonylmethyl-2,3-dihydro-2-oxo-5-phenyl-1H-1,4-benzodiazepin-3-yl)-N'-(3-methylphenyl) urea] belongs 0.28 nM. On to `Cc1cccc(NC(=O)NC2N=C(c3ccccn3)c3ccccc3N(CC(=O)C(C)(C)C)C2=O)c1` (racemic) [Example 27, N-((3RS)-1-tert-Butylcarbonylmethyl-2,3-dihydro-2-oxo-5-(2-pyridyl)-1H-1,4-benzodiazepin-3-yl)-N'-(3-methylphenyl) urea], for which the “maximum inhibition” value in experiment [1] (3 μmol/kg) was found to be 66%. Still for that read-out and setting: for `CN(C)c1cccc(NC(=O)NC2N=C(c3ccccn3)c3ccccc3N(CC(=O)C(C)(C)C)C2=O)c1` (racemic) [Example 38, N-((3RS)-1-tert-Butylcarbonylmethyl-2,3-dihydro-2-oxo-5-(2-pyridyl)-1H-1,4-benzodiazepin-3-yl)-N'-(3-dimethylaminophenyl) urea] the value was 100%.

At CCK-B receptor, `Cc1cccc(NC(=O)NC2N=C(c3ccccc3)c3ccccc3N(CC(=O)C3(C)CCCCC3)C2=O)c1` (racemic) [Example 34, N-((3RS)-1-((1-Methylcyclohexyl)carbonylmethyl)-2,3-dihydro-2-oxo-5-phenyl-1H-1,4-benzodiazepin-3-yl)-N'-(3-methylphenyl) urea] had an IC50 of 0.38 nM.

Turning to `Cc1cccc(NC(=O)N[C@@H]2N=C(c3ccccc3)c3ccccc3N(C)C2=O)c1` [reference compound], the “maximum inhibition” value in experiment [1] (100 μmol/kg) is given as 0%.
